The results in this text go back to patent US20150204846A1, “PHOSPHATIDYLINOSITOL-3-KINASE C2 BETA MODULATORS AND METHODS OF USE THEREOF” (NEW YORK UNIVERSITY, priority 2012, published 2015).

Entries after “also recorded” stand apart in the source; their conditions may differ.

The subject of the experiment is KCa3.1. The experiment in a line: Whole cell patch clamp of FcεR1 stimulated KCa3.1 channel activity in BMMCs. As to conditions: for rescue of FcεR1 stimulated KCa3.1 channel activity: TRIM27+/+ BMMC transfected with siRNA to PI3KC2β, phosphoinositide added to the pipette solution (PI3P 100 nM). In kind it is cell-based, mouse. On the procedure: Whole cell patch clamping was performed on TRIM27^+/+ and TRIM27^−/− BMMCs that were first sensitized overnight with anti-DNP IgE and then stimulated with DNP-HSA using conditions previously described (5). Briefly, the standard pipette solution contained 140 mM KCl, 2 mM MgCl2, 10 mM Hepes, 2 mM Na^+-ATP and 0.1 mM GTP, pH 7.3. The standard external solution contained 140 mM NaCl, 5 mM KCl, 2 mM CaCl2, 1 mM MgCl2 and 10 mM Hepes, pH 7.3. Whole-cell currents were recorded using an Axoclamp 200 B amplifier (Axon Instruments, Foster City, Calif., USA), and currents were evoked by applying voltage commands to a range of potentials in 10 mV steps from a holding potential of 20 mV. For measuring the membrane potential, ruptured patch was used in current clamp mode as described in (34).
To verify that PI3KC2β mediated activation of KCa3.1 via the generation of PI3P, PI3P (100 nM) was added into the pipette solution during patch clamping in BMMCs in which PI3KC2β was knocked down using siRNA (32). PI(3)P diC16 [C41H45Na3O16P2 (C6)] was purchased from Echelon Biosciences and used according to specifications at a concentration of 100 nM in the pipette solution.
Background: The patch-clamp technique gives a direct electrical read-out from membranes.

As to PI(3,4,5)P3, the “rescue of FcεR1 stimulated KCa3.1 channel activity” value was “failed to rescue; also recorded: failure”.
As for PI4P, the “rescue of FcεR1 stimulated KCa3.1 channel activity” value is reported as “failed to rescue”. Moreover, where the note is “listed as PI(4)P”, the “rescue of FcεR1 stimulated KCa3.1 channel activity” value is recorded as “failure”.
On to `CCCCCCCCCCCCCCCC(=O)OC[C@H](COP(=O)(O)O[C@@H]1[C@H](O)[C@H](OP(=O)(O)O)[C@@H](O)[C@H](O)[C@H]1O)OC(=O)CCCCCCCCCCCCCCC` [PI3P, phosphatidylinositol 3 phosphate], for which the “rescue of FcεR1 stimulated KCa3.1 channel activity” value was “restored”. Moreover, the “rescue of KCa3.1 channel activity” value (TRIM27-/- BMMC transfected with siRNA to PI3KC2β, PI3P added to the pipette solution) was “rescue”.
